# Measurements as given in patent publication US11091428B2 (HAPLOGEN GMBH, priority 2016, dated 2021).
# Key:
# [1] = tested on: picornaviruses (CVB1, HRV-A2, HRV-A23, EV-68); test: Anti-picornavirus cytopathic effect (CPE) reduction assay on HeLa H1 cells; type: cell-based; details: Enterovirus B, HeLa H1, 48 h, HeLa H1 cells, 48 h, category from averaging the EC50 values from four picornaviruses (CVB1, HRV-A2, HRV-A23, EV68); read-out: EC50 values of the compounds determined in the anti-picornavirus assay
# Outline: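 HeLa H1 cells pre-treated 2 h with serially diluted compound in DMEM/2% FBS, then infected at an MOI giving full CPE in 2 days. After 48 h at 37° C, viability read by CellTiterBlue fluorescence (ex 560/em 590 nm), normalised to infected and uninfected vehicle controls; EC50 by non-linear regression, category from mean of four viruses.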
# PLA2G16 = target: T1, PLA2G16 (Homo sapiens, UniProt P53816); test: Enzyme activity assay for PLA2G16 (Red/Green BODIPY PC-A2 fluorescence); type: biochemical; details: His-tagged PLA2G16, 4 min pre-incubation, 2 nM to 50 μM; read-out: IC50 values of the compounds determined in the enzyme activity assay for PLA2G16
# T1 construct: Hexa-His (N); made in house; host or cells: E. coli BL21(DE3)
# T1 sequence (P53816 1-162): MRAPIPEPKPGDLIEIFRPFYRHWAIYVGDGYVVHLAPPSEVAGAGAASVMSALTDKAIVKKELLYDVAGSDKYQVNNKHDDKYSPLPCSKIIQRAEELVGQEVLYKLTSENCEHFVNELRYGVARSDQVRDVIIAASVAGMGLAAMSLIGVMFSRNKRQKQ
# Outline: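 N-His-tagged human PLA2G16 from E. coli, Ni-NTA purified. Pre-incubated 4 min with compound (2 nM–50 μM final) in pH 8.5 Tris/NaCl buffer with 5 mM glutathione, then BODIPY PC-A2 in DOPC/DOPG/cholesterol vesicles added. Fluorescence (ex 480/em 530 nm) increase over 10 min taken as activity; IC50 by non-linear regression.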
SMILES,EC50 [1] [nM],IC50 (PLA2G16) [nM]
"NC(=O)c1ccc(CN2C(=O)CCC2C(=O)C(=O)NCC2CCCCC2)cc1 (stereo not drawn) [FP 252, 4-[(2-{[(Cyclohexylmethyl)carbamoyl]carbonyl}-5-oxopyrrolidin-1-yl)methyl]benzamide]",1000 to 10000,< 1000
"CC(NC(=O)C1CCC(F)(F)CC1)C(=O)C(=O)NCC1CC1 (stereo not drawn) [FP 173, N-(Cyclopropylmethyl)-3-[(4,4-difluorocyclohexyl)formamido]-2-oxobutanamide]",> 10000,1000 to 10000
"CC(C(=O)C(=O)NCC1CCCCC1)N(C=O)CC1CC1 (stereo not drawn) [FP 51, N-(Cyclohexylmethyl)-3-[N-(cyclopropylmethyl)formamido]-2-oxobutanamide]",1000 to 10000,< 1000
"CC(C)NC(=O)[C@H]1C[C@@H](NC(=O)C(=O)[C@H]2CCC(=O)N2Cc2ccccc2)C1 [FP 305, (1 s,3s)-3-{2-[(2R)-1-Benzyl-5-oxopyrrolidin-2-yl]-2-oxoacetamido}-N-(propan-2-yl)cyclobutane-1-carboxamide]",1000 to 10000,< 1000
"O=CN(Cc1ccccc1)[C@@H](Cc1cn(C(c2ccccc2)(c2ccccc2)c2ccccc2)cn1)C(=O)C(=O)NCC1CCCCC1 [FP 116, (3S)-3-(N-Benzylformamido)-N-(cyclohexylmethyl)-2-oxo-4-[1-(triphenylmethyl)-1H-imidazol-4-yl]butanamide]",< 1000,< 1000
"O=CN(Cc1ccccc1)[C@@H](Cc1cn(C(c2ccccc2)(c2ccccc2)c2ccccc2)cn1)C(=O)C(=O)NCC1CC1 [FP 117, (3S)-3-(N-Benzylformamido)-N-(cyclopropylmethyl)-2-oxo-4-[1-(triphenylmethyl)-1H-imidazol-4-yl]butanamide]",< 1000,< 1000
"COc1ccccc1N(C=O)C(C)C(=O)C(=O)NC(C)(C)c1cccc(Cl)c1 (stereo not drawn) [FP 11, N-[2-(3-Chlorophenyl)propan-2-yl]-3-[N-(2-methoxyphenyl)formamido]-2-oxobutanamide]",< 1000,< 1000
"COc1ccccc1N(C=O)C(C)C(=O)C(=O)NCC(C)(C)C (stereo not drawn) [FP 101, N-(2,2-Dimethylpropyl)-3-[N-(2-methoxyphenyl)formamido]-2-oxobutanamide]",1000 to 10000,< 1000
"CC(C(=O)C(=O)NCC1CCCCC1)N(C=O)C1CCCCC1 (stereo not drawn) [FP 52, 3-(N-Cyclohexylformamido)-N-(cyclohexylmethyl)-2-oxobutanamide]",< 1000,< 1000
"C[C@@H]1CC(=O)N(Cc2ccccc2)[C@@H]1C(=O)C(=O)NCC1CC1 (single isomer, unassigned) [FP 335]",1000 to 10000,< 1000
"COc1ccccc1N(C=O)C(C)C(=O)C(=O)NCc1cnccn1 (stereo not drawn) [FP 104, 3-[N-(2-Methoxyphenyl)formamido]-2-oxo-N-[(pyrazin-2-yl)methyl]butanamide]",> 10000,1000 to 10000
"CCOCCOCCNC(=O)C(=O)[C@H]1CCC(=O)N1Cc1ccccc1 [FP 302, 2-[(2R)-1-Benzyl-5-oxopyrrolidin-2-yl]-N-[2-(2-ethoxyethoxy)ethyl]-2-oxoacetamide]",1000 to 10000,< 1000
"CC(C)CC(=O)N1CC(NC(=O)C(=O)[C@H]2CCC(=O)N2Cc2ccccc2)C1 [FP 317, 2-[(2R)-1-Benzyl-5-oxopyrrolidin-2-yl]-N-[1-(3-methylbutanoyl)azetidin-3-yl]-2-oxoacetamide]",1000 to 10000,< 1000
"O=C(N[C@@H]1CCCC[C@@H]1O)C(=O)[C@H]1CCC(=O)N1Cc1ccccc1 (single isomer, unassigned) [FP 272]",> 10000,1000 to 10000
"CC(C)C(C(=O)C(N)=O)N(C=O)Cc1ccccc1 (stereo not drawn) [FP 198, 3-(N-Benzylformamido)-4-methyl-2-oxopentanamide]",> 10000,1000 to 10000
"O=C(NCC1CC1)C(=O)C1CCC(=O)N1Cc1ccccc1 (stereo not drawn) [FP 138, 2-(1-Benzyl-5-oxopyrrolidin-2-yl)-N-(cyclopropylmethyl)-2-oxoacetamide]",< 1000,< 1000
"CNC(=O)C(=O)[C@H]1CCC(=O)N1Cc1ccc(Cl)cc1 [FP 283, 2-[(2R)-1-[(4-Chlorophenyl)methyl]-5-oxopyrrolidin-2-yl]-N-methyl-2-oxoacetamide]",1000 to 10000,< 1000
"CC(OCC1CCOCC1)C(=O)C(=O)NCC1CCC1 (stereo not drawn) [FP 131, N-(Cyclobutylmethyl)-3-[(oxan-4-yl)methoxy]-2-oxobutanamide]",< 1000,< 1000

SMILES,EC50 [1] [nM],IC50 (PLA2G16) [nM]
"Cc1ccc(C(=O)NC(C)C(=O)C(=O)NCC2CC2)cc1 (stereo not drawn) [FP 159, N-(Cyclopropylmethyl)-3-[(4-methylphenyl)formamido]-2-oxobutanamide]",> 10000,< 1000
"O=C(NCC1CC1)C(=O)C1CCC(=O)N1CC1CCCCC1 (stereo not drawn) [FP 202, 2-[1-(Cyclohexylmethyl)-5-oxopyrrolidin-2-yl]-N-(cyclopropylmethyl)-2-oxoacetamide]",< 1000,< 1000
"CC(OC1CCCCC1)C(=O)C(=O)NCC1CCCC1 (stereo not drawn) [FP 127, 3-(Cyclohexyloxy)-N-(cyclopentylmethyl)-2-oxobutanamide]",< 1000,< 1000
"O=C(NCC1(CO)CC1)C(=O)C1CCC(=O)N1Cc1ccc(Cl)cc1 (stereo not drawn) [FP 276, 2-{1-[(4-Chlorophenyl)methyl]-5-oxopyrrolidin-2-yl}-N-{[1-(hydroxymethyl)cyclopropyl]-methyl}-2-oxoacetamide]",1000 to 10000,< 1000
"O=C(NCCc1ccncc1)C(=O)C1CCC(=O)N1Cc1ccccc1 (stereo not drawn) [FP 226, 2-(1-Benzyl-5-oxopyrrolidin-2-yl)-2-oxo-N-[2-(pyridin-4-yl)ethyl]acetamide]",1000 to 10000,< 1000
"CC(=O)NCCNC(=O)C(=O)C1CCC(=O)N1Cc1ccc(Cl)cc1 (stereo not drawn) [FP 243, 2-{1-[(4-Chlorophenyl)methyl]-5-oxopyrrolidin-2-yl}-N-(2-acetamidoethyl)-2-oxoacetamide]",> 10000,1000 to 10000
"CC(C)C(=O)N(C)C(C)C(=O)C(=O)NCC1CCCCC1 (stereo not drawn) [FP 144, N-(Cyclohexylmethyl)-3-(N,2-dimethylpropanamido)-2-oxobutanamide]",1000 to 10000,< 1000
"O=C(NCc1ncccn1)C(=O)[C@H]1CCC(=O)N1Cc1ccccc1 [FP 298, 2-[(2R)-1-Benzyl-5-oxopyrrolidin-2-yl]-2-oxo-N-[(pyrimidin-2-yl)methyl]acetamide]",1000 to 10000,< 1000
"CCC(C(=O)C(=O)NCC1CCCCC1)N(C=O)CC1CN(C(=O)OC(C)(C)C)C1 (stereo not drawn) [FP 61, tert-Butyl 3-[(NM{1-[(cyclohexylmethyl)carbamoyl]-1-oxobutan-2-yl}formamido)methyl]-azetidine-1-carboxylate]",1000 to 10000,< 1000
"Cc1noc(CNC(=O)C(=O)[C@H]2CCC(=O)N2Cc2ccccc2)n1 [FP 287, 2-[(2R)-1-Benzyl-5-oxopyrrolidin-2-yl]-N-[(3-methyl-1,2,4-oxadiazol-5-yl)methyl]-2-oxoacetamide]",1000 to 10000,< 1000
"CC(C(=O)C(=O)NCc1cccc(Cl)c1)N(C=O)C1CCOCC1 (stereo not drawn) [FP 22, N-[(3-Chlorophenyl)methyl]-3-[N-(oxan-4-yl)formamido]-2-oxobutanamide]",1000 to 10000,< 1000
"COc1ccccc1N(C(=O)C(C)C)C(C)C(=O)C(=O)NCc1cccc(Cl)c1 (stereo not drawn) [FP 142, N-[(3-Chlorophenyl)methyl]-3-[N-(2-methoxyphenyl)-2-methylpropanamido]-2-oxobutanamide]",1000 to 10000,< 1000
"CCCC(NC(=O)CN1CCN(C)CC1)C(=O)C(=O)NCC1CCCCC1 (stereo not drawn) [FP 214, N-(Cyclohexylmethyl)-3-[2-(4-methylpiperazin-1-yl)acetamido]-2-oxohexanamide]",> 10000,1000 to 10000
"O=C(NCC1CC1)C(=O)C1CCC(=O)N1Cc1ccc(Cl)cc1 (stereo not drawn) [FP 203, 2-{1-[(4-Chlorophenyl)methyl]-5-oxopyrrolidin-2-yl}-N-(cyclopropylmethyl)-2-oxoacetamide]",< 1000,< 1000
"CC(C)C(=O)NCCCCNC(=O)C(=O)[C@H]1CCC(=O)N1Cc1ccccc1 [FP 304, N-(4-{2-[(2R)-1-Benzyl-5-oxopyrrolidin-2-yl]-2-oxoacetamido}butyl)-2-methylpropan-amide]",1000 to 10000,< 1000
"CC(C)C(OCC1CCOCC1)C(=O)C(=O)NCC1CC1 (stereo not drawn) [FP 137, N-(Cyclopropylmethyl)-4-methyl-3-[(oxan-4-yl)methoxy]-2-oxopentanamide]",> 10000,< 1000
"CCCC(NC(=O)c1ccccc1)C(=O)C(=O)NC1CC1 (stereo not drawn) [FP 184, N-Cyclopropyl-2-oxo-3-(phenylformamido)hexanamide]",> 10000,< 1000
"Cc1cccc(C(=O)NC(C)C(=O)C(=O)NCC2CC2)c1 (stereo not drawn) [FP 171, N-(Cyclopropylmethyl)-3-[(3-methylphenyl)formamido]-2-oxobutanamide]",> 10000,1000 to 10000
